Data: US10493108B2, “Non-invasive in vivo imaging and methods for treating diabetes” (Biocrine AB, priority 2007, dated 2019)

Key:
[1] = Blood glucose after intravenous glibenclamide; assay type: in vivo, mouse; conditions: glibenclamide intravenously (1 mg/kg, tail vein); data not shown
islet cells (β-cells) = test: In vivo recording of [Ca2+]i changes in islets engrafted in the anterior chamber of the eye (Fluo-4/Fura-Red ratio); design: species or system mouse; conditions: glibenclamide 1 mg/kg i.v.; remained high throughout the recording
[2] = tested on: β-cells of RIP-GFP islet grafts; conditions: mouse, in vivo
[3] = Blood glucose after intravenous alloxan; conditions: alloxan 75 mg/kg i.v., after 24 h, n=6
islet cells = conditions: direct mechanism on islet cells; cited from earlier work

## COc1ccc(Cl)cc1C(=O)NCCc1ccc(S(=O)(=O)NC(=O)NC2CCCCC2)cc1 [glibenclamide]
[1]
  blood glucose levels: decreased blood glucose levels
Islet cells (β-cells)
  [Ca2+]i in islet cells (Fluo-4/Fura-Red fluorescence ratio): prominent rises

## O=C1NC(=O)C(=O)C(=O)N1 [alloxan]
[2]
  GFP fluorescence of islet grafts: substantial loss of GFP fluorescence
  annexin V-APC labelling of islet grafts: strong labelling
[3]
  blood glucose concentration: 25.0 ± 1.3 mmol/L

## FC(F)OC(Cl)C(F)(F)F (stereo not drawn) [Isoflurane]
Islet cells
  glucose stimulated insulin release: inhibit
